Experiment [1] concerns the target T1, Olfr1377 (Mus musculus, UniProt B2RQ46).
T1 sequence (B2RQ46 1-307): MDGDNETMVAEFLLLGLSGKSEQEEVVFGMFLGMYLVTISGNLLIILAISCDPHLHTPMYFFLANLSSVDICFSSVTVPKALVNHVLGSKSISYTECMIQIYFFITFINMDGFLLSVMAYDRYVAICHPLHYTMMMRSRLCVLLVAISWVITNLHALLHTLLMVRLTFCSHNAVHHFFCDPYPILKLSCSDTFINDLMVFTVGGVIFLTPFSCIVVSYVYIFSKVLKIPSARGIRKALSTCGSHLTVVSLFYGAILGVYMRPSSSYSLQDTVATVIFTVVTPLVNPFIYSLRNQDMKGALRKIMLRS
The experiment in a line: CRE-luciferase reporter assay in Hana3A cells. Type of experiment: cell-based. Set-up: expressed from plasmid in Hana3A cells with RTP1S and M3R. For orientation: In a reporter assay the amount or activity of a reporter protein is the signal.

The target in experiment [2] is T1, Olfr1377. The experiment in a line: in vivo two-photon GCaMP6s imaging of the receptor-tagged glomerulus. Set-up: native receptor in mKate2-labelled olfactory sensory neurons (IRES-mKate2 after the CDS, receptor unaltered). The following applies: agonist; estimated delivered odorant concentration (olfactometer), anesthetized mice.
Experiment [3] concerns the target T1, Olfr1377. The description is as above. Conditions: agonist; inhaled odorant on the order of 10^0 nM, anesthetized mice. Set-up: native receptor in mKate2-labelled olfactory sensory neurons (IRES-mKate2 after the CDS, receptor unaltered).
For the next experiment, the target named is T2, Olfr881 (Mus musculus, UniProt Q8VF63).
T2 construct: gene Or8b35; native receptor in mKate2-labelled olfactory sensory neurons (IRES-mKate2 after the CDS, receptor unaltered)
T2 sequence (Q8VF63 1-314): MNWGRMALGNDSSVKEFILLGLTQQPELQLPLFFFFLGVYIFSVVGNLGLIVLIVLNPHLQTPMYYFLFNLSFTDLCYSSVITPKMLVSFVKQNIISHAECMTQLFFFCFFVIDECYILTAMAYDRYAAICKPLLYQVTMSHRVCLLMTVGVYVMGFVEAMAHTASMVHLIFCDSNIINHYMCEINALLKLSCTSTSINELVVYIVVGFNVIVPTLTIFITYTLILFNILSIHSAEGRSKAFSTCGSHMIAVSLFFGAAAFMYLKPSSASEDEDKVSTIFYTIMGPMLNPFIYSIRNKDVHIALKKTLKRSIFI
As to the kind of experiment: in vivo two-photon GCaMP6s imaging of the receptor-tagged glomerulus; pS6-IP RNA-Seq. Conditions: agonist; inhaled odorant, anesthetized mice (imaging).

Usually EC50 stands for the concentration that produces a half-maximal response.

For the molecule `CC(=O)c1ccccc1O` [2′-hydroxyacetophenone], at Olfr1377 [1], the EC50 is 300 µM.

At Olfr1377 [1], `CC(=O)c1ccccc1` [acetophenone] gave an EC50 of 10.1 µM. This EC50 is about 30-fold lower than that of the molecule before.

For `COc1ccc(C(C)=O)cc1` [4-methoxyacetophenone], the EC50 on Olfr1377 [1] is 0.008 µM. For the same molecule, the “in vivo response threshold” value at Olfr1377 [2] is recorded as ~ 10^−13 M.

Turning to `COc1ccc(C=O)cc1` [p-anisaldehyde], on Olfr1377 [3], the “glomerular response to odorant” value was “Olfr1377 showed strong responses to p-anisaldehyde, acetophenone, and the aliphatic ketone 4-methyl-3-penten-2-one”.

Turning to `CC(=O)C=C(C)C` [4-methyl-3-penten-2-one], the “glomerular response to odorant” value on Olfr1377 [3] was “Olfr1377 showed strong responses to p-anisaldehyde, acetophenone, and the aliphatic ketone 4-methyl-3-penten-2-one”.

`CC(=O)c1ccc(C)cc1` [4-methylacetophenone] yielded an EC50 on Olfr1377 [1] of 1 µM. The “in vivo two-photon GCaMP6s imaging of the receptor-tagged glomerulus; pS6-IP RNA” value on Olfr881 was “both Olfr1377 and Olfr881 exhibited robust responses to low concentrations of 4-methylacetophenone”.

The values above are taken from publication PMC9437035, “Decoding the olfactory map through targeted transcriptomics links murine olfactory receptors to glomeruli” (Nature Communications, 2022).
